Consider ten compounds from patent EP0216028A2, “Use of anthranilic-acid derivatives as anthelmintic medicaments” (HOECHST AKTIENGESELLSCHAFT, priority 1985, dated 1987).

Read-outs that look alike come from different tables or passages of the source.

The test system of series [1] is Leberegel (Fasciola hepatica). The series can be described thus: Chemotherapeutic test in sheep infected with liver fluke (egg count reduction / worm burden). Type of series: in vivo. Particulars: Tabelle 1, Wirtstier: Schaf, p.o.; for minimal effective dose: Fasciola hepatica, po, minimum curative dose, read-out: Dosis (>90% Reduktion der Wurmbürde); for Chemotherapeut. Index: quotient of Dosis tolerata maxima and Dosis curativa minima. From the text:
(§1) Zur Feststellung der anthelminthischen Wirkung der Verbindungen der Formel I wurden chemotherapeutische Untersuchungen an ca. 25-30 kg schweren Schaflämmern ausgeführt, die entweder mit Metazerkarien von Fasciola hepatica oder mit Larven von Magen-Darm-Strongyliden, vornehmlich Haemonchus contortus und Trichostongylus colubriformis, oral infiziert worden waren. Nach Ablauf der Präpatenzperiode (Zeit zwischen Infektion und Geschlechtsreife der Parasiten mit beginnender Ausscheidung von Eiern oder Larven) wurde der Parasitenbefall durch Kotuntersuchungen gesichert. […] Unmittelbar danach wurde die Behandlung der Schafe (im allgemeinen 3 - 4 Tiere pro Wirkstoff, mindestens aber 2) vorgenommen. Den Tieren wurde oral oder parenteral eine Suspension von unterschiedlicher Wirkstoffmenge in jeweils 10 ml einer 1%igen Carboxymethylcellulose-Suspension appliziert. Jeweils am 7., 14. und 28. Tag nach der Behandlung wurde wiederum nach den vorstehend angegebenen Verfahren die Eizahl pro Gramm Kot ermittelt und ihre prozentuale Abnahme im Vergleich zum Ausgangswert vor der Behandlung errechnet. Mit einigen Verbindungen wurden außerdem beim Fasciola-Befall noch eine zusätzliche Prüftechnik angewandt: Nach Abschluß der Präpatenzperiode wurde bei Fasciola-positiven Schafen ein künstlicher Gallengang geschaffen, der am Ausgang der Gallenblase ein Sieb enthielt, so daß die nach der Behandlung abgetöteten Leberegel in der Gallenblase aufgefangen werden konnten. Vier bis sieben Tage nach der Behandlung wurden die so operierten und dann behandelten Schafe getötet, die abgetöteten Leberegel in der Gallenblase sowie noch eventuell in der Leber vorhandene lebende Leberegel gezählt und von der gesamten Wurmbürde der Prozentsatz der abgetöteten Parasiten berechnet.
(§2) Der chemotherapeutische Index gibt den Quotienten aus Do- sis tolerata maxima und Dosis curativa minima an.

The subject of series [2] is Magen-Darm-Würmer(Ostertagia, Haemonchur, Trichostrongylus, Cooperia, jeweils verschiedene Spezies). Description: Chemotherapeutic test in sheep infected with gastrointestinal worms (egg count reduction / worm burden). Particulars: Tabelle 2, Wirtstier: Schaf; for Chemotherapeut. Index: quotient of Dosis tolerata maxima and Dosis curativa minima; for minimal effective dose: Trichostrongylus, read-out: Dosis (>90% Reduktion der Wurmbürde). It is filed as in vivo.
Source text: as §1, §2

`O=[N+]([O-])c1cc(Cl)cc(-c2cc(Cl)cc([N+](=O)[O-])c2O)c1O` [Niclofolan, 5,5'-Dichlor-2-2'-dihydroxy-3,3'-dinitro-biphenyl, reference compound]: in series [1], the minimal effective dose was found to be 3 mg/kg and the “Chemotherapeut. Index” value is given as 3. In addition, the “Dosis (>90% Reduktion der Wurmbürde)” value in series [2] (result in words, route not printed (oral bzw. subkutan)) was “keine Wirkung”.

In the case of `O=C(Nc1ccc(Oc2ccc(Cl)cc2)c(Cl)c1)c1cc(I)cc(I)c1O` [Rafoxanide, 3'-Chlor-4'-(p-chlor-phenoxy)-3,5-dijod-salicylanilid, reference compound], the minimal effective dose in series [1] amounted to 7.5 mg/kg; in series [2] (po, p.o.) it was 7.5 mg/kg. Also, the “Chemotherapeut. Index” value in series [1] and in series [2] (p.o.) was 6 throughout.

For the compound `O=C(Nc1ccc(Cl)cc1)c1cc(Cl)cc(Cl)c1NS(=O)(=O)c1ccc(Cl)cc1` [Verbindung 13, 3,5-Dichlor-2-[(4-chlor-phenylsulfonyl)-amino]-benzoesäure-(4-chlor-anilid)], the minimal effective dose came to 5 mg/kg in series [1] and 10 mg/kg in series [2] (po, p.o.). The entries for the “Chemotherapeut. Index” value in series [1] and in series [2] (p.o.) were 10 and 5, respectively.

With `O=C(Nc1ccc(Cl)cc1)c1cc(Cl)ccc1NS(=O)(=O)c1ccc(Br)cc1` [Verbindung 20, 5-Chlor-2-[(4-brom-phenylsulfonyl)-amino]-benzoesäure-(4-chlor-anilid)], the minimal effective dose in series [1] was 2.5 mg/kg; in series [2] (po, p.o.), 10 mg/kg. For the same compound, the “Chemotherapeut. Index” value in series [1] was 20; in series [2] (p.o.), 5.

On to `O=C(Nc1ccc(Br)cc1)c1cc(Cl)ccc1NS(=O)(=O)c1ccc(Br)cc1` [Verbindung 21], for which the “Chemotherapeut. Index” value in series [2] (s.c.) is on record as “über 6”. The minimal effective dose in series [2] (sc, s.c.) worked out at 5 mg/kg.

Consider `O=C(Nc1ccc(Cl)cc1)c1cc(Cl)ccc1NS(=O)(=O)c1ccc(F)cc1` [Verbindung 22, 5-Chlor-2-[(4-fluor-phenylsulfonyl)-amino]-benzoesäure-(4-chloranilid)], for which the “Chemotherapeut. Index” value in series [2] (p.o.) turned out to be 5. In addition, in series [2] (po, p.o.), the minimal effective dose was found to be 10 mg/kg.

As to `CCCCCCCCCCCCN(C)C(=O)c1cc(Cl)ccc1NS(=O)(=O)c1ccc(Cl)c(Cl)c1` [Verbindung 33, 5-Chlor-2-[(3,4-dichlor-phenylsulfonyl)-amino]-benzoesäure-(N-methyl-dodecylamid)], in series [2] (s.c.), the “Chemotherapeut. Index” value is “über 6”. The minimal effective dose in series [2] (sc, s.c.) was determined as 5 mg/kg.

Take `O=C(Nc1ccc(OC(F)(F)F)cc1)c1cc(Cl)ccc1NS(=O)(=O)c1ccc(Cl)c(Cl)c1` [Verbindung 35, 5-Chlor-2-[(3,4-dichlorphenylsulfonyl)-amino]-benzoesäure-(4-trifluormethoxy-anilid)]: the minimal effective dose in series [1] turned out to be 2.5 mg/kg; in series [2] (po, p.o.), 10 mg/kg. The “Chemotherapeut. Index” value was 20 in series [1] and 5 in series [2] (p.o.).

Consider `O=C(Nc1ccc(Cl)cc1)c1cc([N+](=O)[O-])ccc1NS(=O)(=O)c1ccc(Cl)c(Cl)c1` [Verbindung 38, 2-[(3,4-Dichlor-phenylsulfönyl)-amino]-5-nitrobenzoesäure-(4-chlor-anilid)], for which the “Chemotherapeut. Index” value in series [2] (p.o.) was 6. Moreover, the minimal effective dose in series [2] (po, p.o.) is 7.5 mg/kg.

In the case of `CCN(C(=O)c1cc(Cl)ccc1N(C)S(=O)(=O)c1ccc(Cl)c(Cl)c1)c1ccc(Cl)cc1` [Verbindung 42], the minimal effective dose in series [1] turned out to be 2.5 mg/kg; in series [2] (po, p.o.), 5 mg/kg. The “Chemotherapeut. Index” value is 20 in series [1] and 10 in series [2] (p.o.).
